What was measured:
[1] = xn = mol fraction of the nth substance listed; conditions: 293.15 K, 101 kPa, Liquid; for speed of sound: Sing-around technique in a fixed-path interferometer
[2] = 293.15 K; 101.33 kPa; Liquid; Sing-around technique in a fixed-path interferometer

CCCCCC [hexane] + CCCCO
[1]
Conditions | mass density [kg/m3] | speed of sound [m/s]
x2 = 0.00305 | 659.9 | 1099
x2 = 0.04764 | 664.4 | 1099.2
x2 = 0.1026 | 670.3 | 1099.8
x2 = 0.1225 | 672.4 | 1100.5
x2 = 0.1509 | 675.6 | 1101.6
x2 = 0.2261 | 684.4 | 1105.9
x2 = 0.2979 | 693.4 | 1112.1
x2 = 0.4965 | 720.9 | 1140
x2 = 0.6128 | 738.8 | 1160.2
x2 = 0.6817 | 750.1 | 1174
x2 = 0.7658 | 764.5 | 1192.1
x2 = 0.8937 | 788.1 | 1224.5

CCCCO [butan-1-ol]
Conditions | speed of sound [m/s]
[2] | 1256.3

C1CCCCC1 [cyclohexane]
Conditions | speed of sound [m/s]
[2] | 1279

CC(C)CO [2-methyl-1-propanol]
Conditions | speed of sound [m/s]
[2] | 1204.1

C1CCCCC1 [cyclohexane] + CCCCO
[1]
Conditions | mass density [kg/m3] | speed of sound [m/s]
x2 = 0.00115 | 778.6 | 1278.7
x2 = 0.00245 | 778.5 | 1277.7
x2 = 0.0124 | 778.5 | 1274.6
x2 = 0.0262 | 778.7 | 1271.5
x2 = 0.04084 | 778.8 | 1269.3
x2 = 0.07249 | 779.3 | 1265.3
x2 = 0.1395 | 780.4 | 1258.6
x2 = 0.1897 | 781.4 | 1254.6
x2 = 0.3017 | 784 | 1248.8
x2 = 0.5175 | 790.4 | 1244.4
x2 = 0.6162 | 793.7 | 1244.8
x2 = 0.7983 | 800.8 | 1248.2

CCCCCC [hexane]
Conditions | speed of sound [m/s]
[2] | 1098.9

— the NIST ThermoML archive (doi:10.1007/s10765-009-0665-4)
